Test results: patent US8242274B2, “Triazolopyridine kinase inhibitors useful for the treatment of degenerative and inflammatory diseases” (Galapagos NV, priority 2008, dated 2012)

How the values were obtained:
[1] = Microsomal stability, human; type: in vitro ADME; settings: human liver microsomes, 3 μM compound, 37° C.
Experimental: A 10 mM stock solution of compound in DMSO was diluted 1000 fold in a 182 mM phosphate buffer pH 7.4 in a 96 deep well plate (Greiner, Cat no. 780285) and pre-incubated at 37° C.
40 μL of deionised water was added to a well of a polypropylene Matrix 2D barcode labelled storage tube (Thermo Scientific) and pre-incubated at 37° C.
A Glucose-6-phosphate-dehydrogenase (G6PDH) working stock solution was prepared in 182 mM phosphate buffer pH7.4 and placed on ice before use. A co-factor containing MgCl2, glucose-6-phosphate and NADP+ was prepared in deionised water and placed on ice before use.
A final working solution containing liver microsomes (Xenotech) of a species of interest (human, mouse, rat, dog), previously described G6PDH and co-factors was prepared and this mix was incubated for no longer than 20 minutes at room temperature.
30 μL of the pre-heated compound dilution was added to 40 μL of pre-heated water in the Matrix tubes and 30 μL of the microsomal mix was added. Final reaction concentrations were 3 μM compound, 1 mg microsomes, 0.4 U/mL GDPDH, 3.3 mM MgCl2, 3.3 mM glucose-6-phosphate and 1.3 mM NADP+.
To measure percentage remaining of compound at time zero MeOH or ACN was added (1:1) to the well before adding the microsomal mix. The plates were sealed with Matrix Sepra Seals™ (Matrix, Cat. No. 4464) and shaken for a few seconds ensure complete mixing of all components.
The samples which were not stopped are incubated at 37° C., 300 rpm and after 1 hour of incubation the reaction was stopped with MeOH or ACN (1:1).
After stopping the reaction the samples were mixed and placed on ice for 30 min to precipitate the proteins. The plates were then centrifuged 30 min at 1200 rcf at 4° C. and the supernatant was transferred to a 96 v-bottom PP plate (Greiner, 651201) for analysis on LCMS.
These plates were sealed with sealing mats (MA96RD-04S) of www.kinesis.co.uk and samples were measured at room temperature on LCMS (ZQ 1525 from Waters) under optimized conditions using Quanoptimize to determine the appropriate mass of the parent molecule.
The samples were analyzed on LCMS with a flow rate of 1 mL/min. Solvent A was 15 mM ammonia and solvent B was methanol or acetonitrile, depending on the stop solution used. The samples were run under positive ion spray on an XBridge C18 […] (2.1×30 mm) column, from Waters.
Peak area from the parent compound at time 0 was considered to be 100% remaining. The percentage remaining after 1 hour incubation was calculated from time 0 and was calculated as the percentage remaining. The solubility of the compound in the final test concentration in buffer is inspected by microscope and results are reported.
The data on microsomal stability are expressed as a percentage of the total amount of compound remaining after 60 minutes.

[2] = test system: MAB model; assay: MAB model (collagen antibody-induced arthritis); type: in vivo, mice; settings: for activity in the MAB model: 30 mg/kg
Experimental: The MAB model allows a rapid assessment of the modulation of an RA-like inflammatory response by therapeutics ([…]. Nature Protocols (2006) 2512-2516: Collagen antibody-induced arthritis). DBA/J mice were injected i.v. with a cocktail of mAbs directed against collagen II. One day later, compound treatment was initiated (vehicle: 10% (v/v) HPβCD). Three days later, mice received an i.p. LPS injection (50 μg/mouse), resulting in a fast onset of inflammation. Compound treatment was continued until 10 days after the mAb injection. Inflammation was read by measuring paw swelling and recording the clinical score of each paw. The cumulative clinical arthritis score of four limbs was presented to show the severity of inflammation. A scoring system is applied to each limb using a scale of 0-4, with 4 being the most severe inflammation. • 0 Symptom free • 1 Mild, but definite redness and swelling of one type of joint such as the ankle or wrist, or apparent redness and swelling limited to individual digits, regardless of the number of affected digits • 2 Moderate redness and swelling of two or more types of joints • 3 Severe redness and swelling of the entire paw including digits • 4 Maximally inflamed limb with involvement of multiple joints

Row | Microsomal stability Human (%), compound remaining after 60 minutes [1] | Structure (SMILES) | further results
1 | 30.21% | CC(=O)Nc1ccc(COc2ccc(-c3cccc4nc(NC(=O)C5CC5)nn34)cc2)cc1 [Compound 92, N-(5-(4-(4-acetamidobenzyloxy)phenyl)-[1,2,4]triazolo[1,5-a]pyridin-2-yl)cyclopropanecarboxamide] | 
2 | 4.88% | O=C(Nc1nc2cccc(-c3ccc(NCc4ccccc4)cc3)n2n1)C1CC1 [Compound 72, N-(5-(4-(benzylamino)phenyl)-[1,2,4]triazolo[1,5-a]pyridin-2-yl)cyclopropanecarboxamide] | 
3 | 78.21% | O=C(Nc1nc2cccc(-c3ccc(OCc4ccc(C(F)(F)F)nc4)cc3)n2n1)C1CC1 [Compound 78, N-(5-(4-((6-(trifluoromethyl)pyridin-3-yl)methoxy)phenyl)-[1,2,4]triazolo[1,5-a]pyridin-2-yl)cyclopropanecarboxamide] | 
4 | 42.75% | O=C(Nc1nc2cccc(-c3ccc(OCc4ccccc4)nc3)n2n1)C1CC1 [Compound 57, Cyclopropanecarboxylic acid [5-(6-benzyloxy-pyridin-3-yl)-[1,2,4]triazolo[1,5-a]pyridin-2-yl]-amide] | 

Further lines, the molecule ahead of its results:

Row | Structure (SMILES) | Microsomal stability Human (%), compound remaining after 60 minutes [1] | further results
5 | O=C(Nc1nc2cccc(-c3ccc(OCc4ccccn4)cc3)n2n1)C1CC1 [Compound 37, N-(5-(4-(pyridin-2-ylmethoxy)phenyl)-[1,2,4]triazolo[1,5-a]pyridin-2-yl)cyclopropanecarboxamide] | 70.98% | activity in the MAB model [2]: active
6 | O=C(Nc1nc2cccc(-c3ccc(OCc4ccccc4)cc3)n2n1)C1CC1 [Compound 12, N-(5-(4-(benzyloxy)phenyl)-[1,2,4]triazolo[1,5-a]pyridin-2-yl)cyclopropanecarboxamide] | 70% | 
7 | N#Cc1ccc(COc2ccc(-c3cccc4nc(NC(=O)C5CC5)nn34)cc2)cn1 [Compound 176, N-(5-(4-((6-cyanopyridin-3-yl)methoxy)phenyl)-[1,2,4]triazolo[1,5-a]pyridin-2-yl)cyclopropanecarboxamide] | 157.1% | clinical score, MAB model ([2]; 10 mg/kg p.o.): reduced the clinical score; inflammation, MAB model ([2]; 10 mg/kg p.o.): significantly reduced inflammation; clinical score, MAB model ([2]; 30 mg/kg p.o.): reduced the clinical score with statistical significance; inflammation, MAB model ([2]; 30 mg/kg p.o.): significantly reduced inflammation
8 | O=C(Nc1nc2cccc(-c3ccc(OCc4cccnc4)cc3)n2n1)C1CC1 [Compound 36, N-(5-(4-(pyridin-3-ylmethoxy)phenyl)-[1,2,4]triazolo[1,5-a]pyridin-2-yl)cyclopropanecarboxamide] | 11.65% | activity in the MAB model [2]: active
